From patent publication US20240327320A1, “NOVEL ROUTES OF CHEMICAL SYNTHESIS OF 20S(OH)D3, 20S,25(OH)2D3, 20S,23S(OH)2D3, AND 20S,23R(OH)2D3 AND THEIR MODIFICATION OF THE IMMUNE ACTIVITY OF PBMCS” (United State Government as represen ted by the Department …, priority 2023, published 2024)

Experiments:
[1] = literature, at the same doses; cited from earlier work
[2] = tested on: Human dermal fibroblasts (HDFn); experiment: Proliferation, MTS assay, fibroblasts; type: cell-based; conditions: 24 h or 48 h, 0.1-100 nM, FIG. 6
Protocol: (§1) Human dermal fibroblasts isolated from the skin of black neonates (HDFn) and human epidermal (HaCaT) keratinocytes cultured as described previously (Slominski A, et. al., (2013) The Journal of Clinical Endocrinology and Metabolism 98(2) E298-303; Slominski A T, et. al., (2011) Am J Physiol Cell Physiol 300(3) C526-41) were used for the experiments. Briefly, HDFn were plated onto 96-well plates at a confluence of about 70% in their seventh passage. Both HDFn and HaCaT keratinocytes were treated with 20S(OH)D3, 20S,25(OH)2D3, 20S,23S(OH)2D3, 20S,23R(OH)2D3 or 1α,25(OH)2D3 (Sigma-Aldrich, St. Louis, MO, USA) dissolved in ethanol and diluted in DMEM containing charcoal-treated serum, as previously described (Janjetovic Z, et. al., (2021) Endocrinology 162(1); Chaiprasongsuk A, et. al., (2020) Free Radic Biol Med 155 87-98; Slominski A T, et. al., (2011) Am J Physiol Cell Physiol 300(3) (2011) C526-41). The vehicle control comprised 0.1% ethanol. Proliferation was estimated using MTS (Promega, Madison, WI) assay. The number of viable cells was measured in 6 replicates.
(§2) Referring to FIG. 6A-D, inhibition of cell proliferation by 20S(OH)D3, 20S,25(OH)2D3, 20S,23S(OH)2D3 and 20S,23R(OH)2D3 in comparison to 1α,25(OH)2D3 is represented. […] Data are means±SD (n=6) and were analyzed using Student's t-test with p<0.05 (*), p<0.01 (**) or p<0.001 (***).

[3] = tested on: Human epidermal (HaCaT) keratinocytes; experiment: Proliferation, MTS assay, keratinocytes; type: cell-based; conditions: 24 h or 48 h, 0.1-100 nM, FIG. 6
Protocol: as §1, §2

Human AhR = molecular target: T1, Human AhR (Homo sapiens, UniProt P35869); experiment: Human AhR Reporter Assay System (luciferase); type: cell-based; conditions: 23 h treatment
T1 construct: purchased Indigo Biosciences
T1 sequence (P35869 11-848): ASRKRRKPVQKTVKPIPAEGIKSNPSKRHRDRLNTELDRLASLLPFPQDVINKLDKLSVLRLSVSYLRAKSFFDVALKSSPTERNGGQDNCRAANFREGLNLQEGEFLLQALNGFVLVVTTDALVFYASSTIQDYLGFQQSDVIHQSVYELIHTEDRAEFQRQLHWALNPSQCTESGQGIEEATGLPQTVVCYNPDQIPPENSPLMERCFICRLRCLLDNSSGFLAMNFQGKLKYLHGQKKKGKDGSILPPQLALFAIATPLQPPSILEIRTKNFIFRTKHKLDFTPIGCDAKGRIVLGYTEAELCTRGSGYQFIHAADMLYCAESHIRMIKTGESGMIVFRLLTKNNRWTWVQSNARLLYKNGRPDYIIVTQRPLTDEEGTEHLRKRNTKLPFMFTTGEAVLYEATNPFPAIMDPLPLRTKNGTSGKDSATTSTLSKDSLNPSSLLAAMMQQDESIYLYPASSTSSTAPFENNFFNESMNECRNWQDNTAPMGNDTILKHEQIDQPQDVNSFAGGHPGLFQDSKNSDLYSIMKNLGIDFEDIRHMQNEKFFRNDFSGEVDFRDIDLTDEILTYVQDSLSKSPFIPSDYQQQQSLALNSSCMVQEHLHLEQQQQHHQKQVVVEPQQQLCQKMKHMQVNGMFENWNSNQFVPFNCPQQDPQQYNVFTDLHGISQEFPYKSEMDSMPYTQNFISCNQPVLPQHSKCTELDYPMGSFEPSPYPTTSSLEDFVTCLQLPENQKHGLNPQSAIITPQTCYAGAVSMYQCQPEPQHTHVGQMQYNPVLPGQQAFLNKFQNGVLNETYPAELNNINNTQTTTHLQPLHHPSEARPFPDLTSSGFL
Protocol: The binding of chemically synthesized secosteroids to AhR was tested using the Human AhR Reporter Assay System (Indigo Biosciences, State College, PA, USA) following the manufacturer's protocol and as detailed previously (Slominski A T, et. al., (2018) Int J Mol Sci 19(10)). Briefly, the cells including the luciferase reporter gene linked to an AhR-responsive promoter were treated with the compounds for 23 h and the luminescence signal was measured using Cytation 5 (Biotek, Winooski, VT, USA) after treatment with the detection substrate provided in the kit system.

LXRβ = molecular target: T2, LXRβ (Homo sapiens, UniProt P55055); experiment: LanthaScreen TR-FRET LXRβ coactivator assay; type: biochemical; conditions: TR-FRET ratio 520/495 nm, FIG. 8E-F
T2 construct: purchased Thermo Fisger Scientific, Inc
T2 sequence (P55055 222-460 limits assumed): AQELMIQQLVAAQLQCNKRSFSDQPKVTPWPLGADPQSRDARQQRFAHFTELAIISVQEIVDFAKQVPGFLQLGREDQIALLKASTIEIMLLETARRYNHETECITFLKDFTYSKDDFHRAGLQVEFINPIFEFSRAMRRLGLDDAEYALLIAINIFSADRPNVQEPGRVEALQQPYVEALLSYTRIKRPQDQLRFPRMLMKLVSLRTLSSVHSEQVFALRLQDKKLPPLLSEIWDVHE
Protocol: The bindings were performed using the LanthaScreen TR-FRET LXRa/0 Coactivator kit (Thermo Fisger Scientific, Inc., Waltham, MA) as described previously (Slominski A T, et. al., (2021) Sci Rep 11(1) 8002). Briefly, TR-FRET ratios were calculated by dividing the emission at 520 nm by that at 495 nm using Synergy neo2 (BioTek, Winooski, VT).

activity on AhR (Human AhR)	SMILES	calcemic activity / toxicity [1]	inhibition of fibroblast proliferation [2]	inhibition of keratinocyte proliferation [3]	activity on LXRβ (LXRβ)
–	C=C1CC[C@H](O)C/C1=C/C=C1\CCC[C@@]2(C)[C@H]1CC[C@@H]2[C@@](C)(O)CCCC(C)C [20S(OH)D3, (20S)-20-Hydroxyvitamin D3]	non-calcemic	inhibits fibroblast and keratinocyte proliferation	inhibits fibroblast and keratinocyte proliferation	–
–	C=C1CC[C@H](O)C/C1=C/C=C1\CCC[C@@]2(C)[C@H]1CC[C@@H]2[C@@](C)(O)CCCC(C)(C)O [20S,25(OH)2D3, (20S)-20,25-Dihydroxyvitamin D3]	–	inhibits fibroblast and keratinocyte proliferation	inhibits fibroblast and keratinocyte proliferation	–
reverse agonist	C=C1CC[C@H](O)C/C1=C/C=C1\CCC[C@@]2(C)[C@H]1CC[C@@H]2[C@@](C)(O)C[C@H](O)CC(C)C [20S,23R(OH)2D3, (20S,23R)-20,23-Dihydroxyvitamin D3]	–	–	–	less efficient in activation of LXRβ than 20S,23S(OH)2D3
agonistic activity	C=C1CC[C@H](O)C/C1=C/C=C1\CCC[C@@]2(C)[C@H]1CC[C@@H]2[C@@](C)(O)C[C@@H](O)CC(C)C [20S,23S(OH)2D3, (20S,23S)-20,23-Dihydroxyvitamin D3]	non-calcemic	–	–	better affinity with LXRβ
